Data reported in publication PMC7145549, “A general strategy exploiting m^5C duplex-remodelling effect for selective detection of RNA and DNA m^5C methyltransferase activity in cells” (Nucleic Acids Research, 2019).
Entries after “also recorded” stand apart in the source; their conditions may differ. Like-named read-outs stand apart in the source and are kept apart here.

What was measured:
[1] = Fluorescence emission and quantum yield analysis of probes; type: physicochemical; details: in MeOH, reference standard, authors' conditions
Protocol: Fluorescence analysis was performed using a Cary Eclipse fluorescence spectrophotometer, as previously reported with modifications ([36]). The fluorescence emission spectra (λem = 400–600 nm) of the probes were recorded in a quartz cuvette at 37°C, at a total stand concentration 5 μM in a buffer of 10 mM sodium phosphate buffer (pH 7.4) containing 150 mM NaCl and 20 mM MgCl2. An average of five scans was recorded. Background fluorescence spectra were acquired after the probe has been incubated for 30 min at 37°C. For determination of fluorescence quantum yields of the m^5C-probes, see Supplementary Data.
The fluorescence quantum yields (ΦF) of pyrene (Py)-labelled DNA probes 11a-c were determined as previously described.7,11 UV absorption of the probes λex 340 nm was measured on a Cary-300 UV-Visible spectrophotometer (Varian Inc.) from 0.1 to 0.03 absorbance units in 0.01 increments. The fluorescence emission spectra were immediately measured afterwards in a Cary Eclipse (Varian Inc.) fluorescent spectrophotometer with an excitation wavelength of 340 nm. Pyrenebutanoic acid (PBA) in methanol was used as a reference, and was calculated using the equation below. The reported quantum yields are an average of three measurements within ±10%. […]
ΦF(PBA) is the cross-calibrated value for the fluorescence quantum emission yield of pyrenebutanoic acid (PBA) in MeOH. […]

NSUN2 [2] = biological target: T1, NSUN2 (Homo sapiens, UniProt Q08J23); assay: Cell-based m5C-probe methyltransferase assay (flow cytometry, probe 9a)
T1 sequence (Q08J23 whole entry): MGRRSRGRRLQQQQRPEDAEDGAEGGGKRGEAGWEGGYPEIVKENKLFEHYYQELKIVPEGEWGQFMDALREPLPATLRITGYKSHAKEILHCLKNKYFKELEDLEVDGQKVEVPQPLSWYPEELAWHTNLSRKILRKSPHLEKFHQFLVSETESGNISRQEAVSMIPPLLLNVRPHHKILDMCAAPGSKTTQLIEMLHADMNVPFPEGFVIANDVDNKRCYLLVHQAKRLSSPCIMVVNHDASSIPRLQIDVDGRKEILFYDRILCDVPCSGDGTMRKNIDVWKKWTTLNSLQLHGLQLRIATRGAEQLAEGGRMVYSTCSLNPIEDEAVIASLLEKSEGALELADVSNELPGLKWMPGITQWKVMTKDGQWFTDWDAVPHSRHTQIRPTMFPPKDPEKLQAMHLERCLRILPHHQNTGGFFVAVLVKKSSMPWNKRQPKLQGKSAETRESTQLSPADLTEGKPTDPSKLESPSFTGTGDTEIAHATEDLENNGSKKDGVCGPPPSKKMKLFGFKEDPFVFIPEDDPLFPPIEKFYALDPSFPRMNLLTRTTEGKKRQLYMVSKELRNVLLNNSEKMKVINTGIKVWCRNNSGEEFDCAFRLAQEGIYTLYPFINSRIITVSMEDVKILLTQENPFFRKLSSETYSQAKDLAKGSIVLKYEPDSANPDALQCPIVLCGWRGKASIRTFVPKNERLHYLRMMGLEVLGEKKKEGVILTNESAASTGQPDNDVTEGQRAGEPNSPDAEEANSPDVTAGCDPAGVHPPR
Protocol: The HeLa cells were pre-incubation with various concentrations of non-specific MTase inhibitors, including sinefungin, S-adenosyl-L-homocysteine (SAH), adenosine, and homocysteine at 37°C for 30 min. Nine different concentrations of inhibitors were used (0.1, 0.3, 1, 3, 10, 50, 100, 250, 1000 μM) and the final DMSO concentration was kept at less than 1% (v/v) of the assay mix. […] This was followed by the delivery of either the m^5C-probe 9a (10 μM) or control probe 10a (10 μM) into the cells via Lipofectamine 2000. Aliquots were then collected for flow cytometry measurements (λex 355 nm; λem 425–475 nm) at the indicated time points. The mean fluorescence intensity of at least 20 000 live cells was determined. IC50 determination: the IC50 values were then calculated from the variation in fluorescence at different inhibitor concentrations using nonlinear regression, with normalised dose-response fit on GraphPad Prism 6.0™. The assay was performed in triplicate for each inhibitor concentration. Z’ factor determination: the Z’ factor for our m^5C-probe assay was calculated using previously described method ([55]). For details, see Supplementary Data. […]
Cell-based m5C-probe methyltransferase assay
The HeLa cells were pre-incubation with various concentrations of DNA/RNA MTase inhibitors, including sinefungin, S-adenosyl-L-homocysteine (SAH), adenosine, and homocysteine at 37 °C for […]
and the final DMSO concentration was kept at less than 1% v/v of the assay mix. These concentrations […]
by the delivery of either the m5C-probe 9a (10 μM) or control probe 10a (10 μM) into the cells via Lipofectamine 2000, as described above. Aliquots were then collected for flow cytometry measurements (λex 355 nm; λem 425-475 nm) at the indicated time points. The mean fluorescence intensity of at least 20,000 live cells was determined.
For IC50 determination: the IC50 value were then calculated from the variation in fluorescence at different inhibitor concentrations using nonlinear regression, with normalised dose-response fit on GraphPad Prism 6.0™. The assay was performed in triplicate for each inhibitor concentration.
For the determination of Z’ factor: the Z’ factor for our m5C-probe assay was calculated using the method described by Zhang et al.17 A total of 40 independent assays were run with either sinefungin (1 mM; positive control) or DMSO (1% v/v; negative control). The Z’ factor was then calculated using […]
Where µp and µn are the means of the positive (p) and negative (n) controls σp and σn are the standard deviations of the positive (p) and negative (n) controls.

[3] = free fluorophore; cited from earlier work
DNMT3A = biological target: T2, DNMT3A (Homo sapiens, UniProt Q9Y6K1); assay: In vitro DNMT3A inhibition assay with DNA m5C-probe 11a; type: biochemical; details: probe 11a 5 μM, DNMT3A 0.5 μM, 30 min; read-out: IC50 against DNMT3A
T2 construct: Full-length human DNMT3A protein containing N-terminal His-DDDDK tag was purchased from; His-DDDDK (N); purchased abcam plc; UK ab170408
T2 sequence (Q9Y6K1 whole entry, looked up): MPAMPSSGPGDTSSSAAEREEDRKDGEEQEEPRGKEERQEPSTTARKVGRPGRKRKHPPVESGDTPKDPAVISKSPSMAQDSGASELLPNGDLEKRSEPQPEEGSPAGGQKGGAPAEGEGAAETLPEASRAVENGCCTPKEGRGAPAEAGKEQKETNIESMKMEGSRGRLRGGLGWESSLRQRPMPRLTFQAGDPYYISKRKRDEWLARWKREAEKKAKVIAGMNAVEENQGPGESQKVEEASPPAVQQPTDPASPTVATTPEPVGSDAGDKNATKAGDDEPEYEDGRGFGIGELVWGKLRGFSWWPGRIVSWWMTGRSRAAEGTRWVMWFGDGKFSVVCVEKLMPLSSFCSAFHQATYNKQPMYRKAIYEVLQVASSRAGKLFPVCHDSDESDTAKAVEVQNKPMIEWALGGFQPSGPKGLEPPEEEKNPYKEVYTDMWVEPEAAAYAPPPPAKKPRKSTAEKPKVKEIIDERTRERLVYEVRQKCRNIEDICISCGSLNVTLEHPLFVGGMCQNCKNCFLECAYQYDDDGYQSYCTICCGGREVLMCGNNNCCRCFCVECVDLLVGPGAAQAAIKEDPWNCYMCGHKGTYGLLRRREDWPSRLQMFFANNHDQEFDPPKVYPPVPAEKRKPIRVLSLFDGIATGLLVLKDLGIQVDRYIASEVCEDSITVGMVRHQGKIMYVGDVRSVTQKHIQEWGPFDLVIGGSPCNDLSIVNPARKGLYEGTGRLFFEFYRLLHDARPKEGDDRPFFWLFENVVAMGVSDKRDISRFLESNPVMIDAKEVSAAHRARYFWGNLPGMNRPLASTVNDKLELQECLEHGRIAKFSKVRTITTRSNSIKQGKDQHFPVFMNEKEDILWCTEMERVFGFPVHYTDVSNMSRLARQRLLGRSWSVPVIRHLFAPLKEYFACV
Protocol: (§1) RNA methyltransferase assay: the assay was performed at 37°C in triplicate in a Corning Costar 96-well flat bottom black plate. Reaction consisted of enzyme (0.5 μM), methyl donor S-adenosyl-L-methionine (SAM; 200 μM), m^5C-probe 9a (substrate; 5 μM) or locked-probe 10a (control; 5 μM) in a 50 mM HEPES buffer (pH 7.4) containing 150 mM NaCl and 20 mM MgCl2. The final reaction volume is 25 μl. The time course of fluorescence activation was recorded immediately after the addition of enzyme with a Tecan ultra microplate reader (λex 360 nm; λem 465 nm). An average of five scans was recorded. DNA methyltransferase assay: the assay was performed as described above. Reaction consisted of enzyme (NSUN2 or DNMT3A; 0.5 μM), methyl donor S-adenosyl-L-methionine (SAM; 200 μM), DNA m^5C-probe 11a (substrate; 5 μM) in a 50 mM HEPES buffer (pH 7.4) containing 150 mM NaCl and 20 mM MgCl2. The fluorescence of the reaction was monitored at λem 400 nm (λex 340 nm).
Importantly, m^5C-probe 11a may also be applied to the inhibition study of DNMT3A. […] Work is currently underway to explore the possibility of employing both probes concurrently for the simultaneous detection of RNA and DNA m^5C MTase activity.

NSUN2 [4] = biological target: T1, NSUN2; assay: In vitro m5C-probe fluorescence RNA methyltransferase assay; type: biochemical; parameters: Full-length human NSUN2 (containing C-terminal MYC/DDK tag; TP314459); MYC/DDK (C); purchased Origene Technologies Inc., USA TP314459; details: inhibitor 10 μM, probe 9a 5 μM, NSUN2 0.5 μM
Protocol: as §1
We next examined whether m^5C-probe 9a could function as fluorogenic substrate for RNA:m^5C MTase by testing it against NSUN2, which is of particular interest in light of emerging evidence linking NSUN2 with m^5C methylation of human mRNA ([14]) and its association with human cancers ([25–29]). […] The formation of methylated probe was measured by an increase in fluorescence signal at 465 nm (λex 360 nm).

[5] = UV-based thermal denaturation / thermodynamic analysis; type: physicochemical; details: for increase in duplex stability on m5C methylation (ΔΔG°310): methylated vs unmethylated duplex
Protocol: UV-based thermal denaturation experiments
The melting of each duplex (1a, 1b, 7a, 7b, 11a and 11b) was performed on a Cary 300 UV-Visible Spectrophotometer (Varian) at a total strand concentration of 5 μM (unless otherwise stated) in 10 mM sodium phosphate buffer (pH 7.4), 150 mM NaCl and 20 mM MgCl2. Absorbance versus temperature profiles were recorded at 260 nm. The samples were first denatured by heating to 95 °C at 10 °C/min, followed by slow cooling to 25 °C at 0.4 °C/min to ensure a complete annealing of the strands. The melting transitions were then monitored by heating to 95 °C at 0.4 °C/min. To increase the accuracy of measurements, the sixth position was used to record the temperature data points by placing a temperature probe directly in the cuvette. Each oligo was measured at seven different concentrations (1, 2, 5, 10, 15, 20 and 30 μM), and a total of six independent melting transitions were measured for each concentration. The Tm values were determined by the Varian Cary Software using the baseline (alpha) method, which is defined as the point when the mole fraction of duplex was equal to 0.5. The melting transitions were generally found to be reproducible for all oligos studied.

[6] = CD conformational analysis at a range of MgCl2 concentrations; type: physicochemical; details: 25°C, pH 7.4, 150 mM NaCl, MgCl2 0-300 mM
Protocol: Circular dichroism (CD) spectroscopy
The CD spectra for the duplexes were obtained using a JASCO J-810 spectropolarimeter, as previously described.4 Measurements were carried out at 25 °C with 5 μM probes in a 10 mM sodium phosphate buffer (pH 7.4) containing 150 mM NaCl, and varying MgCl2 concentrations (0, 5, 10, 20, 100, and 300 mM). The concentrations were determined by UV absorbance at 260 nm (A260) using a NanoDrop ND-1000 UV-Visible Spectrophotometer. The oligo solutions were first heated to 90 °C for 5 min, and re-annealed by slow cooling to 4 °C at a rate of 1 °C/min. CD spectra were then recorded in quartz cuvettes (path length 1 mm, 400 μL) from 220 nm to 330 nm at 25 °C using a 10 nm/min scan speed, a spectral band width of 1 nm and a time constant of 4 s. All the spectra were subtracted with the buffer blank and smoothed using the Savitsky-Golay algorithm (polynomial order 10). […]

[7] = HeLa cells, 30 min pre-incubation with inhibitor, probe 9a 10 μM, flow cytometry, read-out: IC50 against NSUN2
[8] = pH 7.4, 150 mM NaCl, 20 mM MgCl2

O=C(O)CCCc1ccc2ccc3cccc4ccc1c2c34 [PBA, Pyrenebutanoic acid]
fluorescence quantum yield [1]: 0.061

Nc1ncnc2c1ncn2[C@@H]1O[C@H](CSCC[C@H](N)C(=O)O)[C@@H](O)[C@H]1O [SAH, S-adenosyl-L-homocysteine]
IC50 (NSUN2 [2]; [7]): 3.1 µM

O=c1nc2[nH]c(-c3ccccc3)cc2c[nH]1 [^pC, 6-phenylpyrrolocytosine]
quantum yield (ΦF) [3]: 0.31

Nc1ncnc2c1ncn2[C@@H]1O[C@H](CO)[C@@H](O)[C@H]1O [adenosine]
IC50 (NSUN2 [2]; [7]): > 200 µM | IC50 (DNMT3A): 106 µM

NC(CCS)C(=O)O (centres unmarked) [homocysteine]
IC50 (NSUN2 [2]; [7]): > 400 µM

Nc1ncnc2c1ncn2[C@@H]1O[C@H](C[C@@H](N)CC[C@H](N)C(=O)O)[C@@H](O)[C@H]1O [sinefungin]
IC50 (NSUN2 [2]): 8.9 µM | effect of inhibitor on probe 9a fluorescence activation by NSUN2 (NSUN2 [4]): reduces significantly; also recorded: significant reduction in fluorescence intensity | IC50 (DNMT3A): 0.7 µM

d(CG-C-GCG)2 [7a]
duplex stabilisation by m5C (ΔΔG°310 per m5C) ([5]; absence of MgCl2): 0.5 kcal/mol per m5C | increase in melting temperature (Tm) per m5C ([5]; absence of MgCl2): 1.7 °C per m5C | ΔΔH° 7a→7b [5, 8]: 7.3 kcal/mol | ΔΔS° 7a→7b [5, 8]: 31.6 cal/mol/K | increase in duplex stability on m5C methylation (ΔΔG°310) [5, 8]: 2.5 kcal/mol

d(CG-m^5C-GCG)2 [7b]
midpoint MgCl2 concentration for B-Z transition [6]: ~ 10 mM | free energy of B-to-Z transition (ΔΔG°T) ([5]; ΔG°310 of 7b (20 mM MgCl2) vs 7b* (no MgCl2)): ~1.5 kcal/mol

r(CG-C-GCG)2 [1a]
increase in duplex stability on m5C methylation (ΔΔG°310) [5, 8]: ~0.8 kcal/mol
